Key:
[1] = target: hSTING(R232) (Homo sapiens, UniProt Q86WV6, H232R); assay: Luciferase reporter assay in HEK293T-hSTING-Luciferase cells, R232 (wild type) human STING; type: cell-based; details: 20 hr stimulation, read-out: R232 human activity (EC50 range)
Outline: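 After 20 hr compound stimulation of 5×10^5 cells, secreted luciferase in the supernatant was measured by luminescence; values are fold-induction over baseline and EC50. The line is a clonal HEK293T stably carrying a STING plasmid (pUNO-1) and a luciferase reporter under five tandem ISREs fused to an ISG54 promoter.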

[2] = target: cynomolgus monkey STING protein (Macaca fascicularis, UniProt A0A2R3XZA6); assay: Luciferase reporter assay, cynomolgus monkey STING overexpressed in HEK293T cells; type: cell-based; details: cynomolgus monkey STING overexpressed in HEK293T cells; read-out: Cynomolgus monkey STING activity (EC50 range)
Outline: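 HEK293T cells overexpressing cynomolgus STING with a secreted luciferase reporter were stimulated with compound for 20 hr. Supernatant reporter activity was then measured by Quanti-Luc luminescence, and EC50 values were derived.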

[3] = target: hSTING(H232) (Homo sapiens, UniProt Q86WV6); assay: Luciferase reporter assay in HEK293T-hSTING-Luciferase cells, H232/REF polymorph; type: cell-based; details: H232/REF polymorph of human STING, EC50 range class
Outline: (§1)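 HEK293T cells stably co-express the hSTING variant (hEF1-HTLV promoter) and an ISRE/ISG54 IRF-inducible luciferase reporter. Clones with minimal ligand-independent activation were used. Cells were stimulated with compounds for 20 hr, and secreted luciferase in the supernatant was read by luminescence to give EC50.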

[4] = target: hSTING(HAQ) (Homo sapiens, UniProt Q86WV6, G230A/H232R/R293Q/R71H); assay: Luciferase reporter assay in HEK293T-hSTING-Luciferase cells, HAQ polymorph; type: cell-based; details: HAQ polymorph of human STING, EC50 range class
Outline: as §1

[5] = tested on: IRF pathway; assay: Reporter gene expression assay in THP1-Dual cells, IRF axis (secreted Lucia luciferase); type: cell-based, human; details: Homo sapiens, 20 hr stimulation, EC50 range class, read-out: THP-IRF activity
Outline: (§2)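 Human THP-1 monocyte-derived cells with two inducible reporters: 5×10^5 cells seeded and stimulated with compounds for 20 hr. SEAP (QUANTI-Blue) and Lucia luciferase (QUANTI-Luc) measured in supernatant; EC50 values reported as ranges.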

[6] = tested on: NF-κB pathway; assay: Reporter gene expression assay in THP1-Dual cells, NFkB axis (secreted SEAP); type: cell-based, human; details: Homo sapiens, 20 hr stimulation, EC50 range class, read-out: THP-NFκB activity
Outline: as §2

Measured: EC50

Chain of hSTING(R232) (Q86WV6 whole entry H232R, the tested form may be a part): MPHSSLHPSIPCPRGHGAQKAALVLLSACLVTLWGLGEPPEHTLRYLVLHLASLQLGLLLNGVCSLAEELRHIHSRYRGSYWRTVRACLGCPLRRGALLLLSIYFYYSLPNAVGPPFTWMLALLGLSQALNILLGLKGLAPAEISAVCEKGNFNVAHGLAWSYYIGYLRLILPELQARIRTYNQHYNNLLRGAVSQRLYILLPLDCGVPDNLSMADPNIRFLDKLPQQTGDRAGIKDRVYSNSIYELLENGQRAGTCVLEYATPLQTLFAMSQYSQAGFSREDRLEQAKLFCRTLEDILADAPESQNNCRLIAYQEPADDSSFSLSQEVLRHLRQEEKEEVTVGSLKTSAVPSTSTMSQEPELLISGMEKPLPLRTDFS
Chain of cynomolgus monkey STING protein (A0A2R3XZA6 entry or part of it): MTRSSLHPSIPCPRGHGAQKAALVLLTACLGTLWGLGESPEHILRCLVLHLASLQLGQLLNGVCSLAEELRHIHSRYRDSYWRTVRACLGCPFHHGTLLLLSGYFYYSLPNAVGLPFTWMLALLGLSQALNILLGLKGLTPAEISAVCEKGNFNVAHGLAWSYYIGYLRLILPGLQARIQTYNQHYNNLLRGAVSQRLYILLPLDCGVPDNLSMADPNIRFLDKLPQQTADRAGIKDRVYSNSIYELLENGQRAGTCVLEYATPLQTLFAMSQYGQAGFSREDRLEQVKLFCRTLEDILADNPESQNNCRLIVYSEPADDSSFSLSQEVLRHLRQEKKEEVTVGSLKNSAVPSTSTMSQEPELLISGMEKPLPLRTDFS
Chain of hSTING(H232) (Q86WV6 whole entry): as the sequence (Q86WV6 whole entry H232R, the tested form may be a part) above, with R232H counted along it
Chain of hSTING(HAQ) (Q86WV6 whole entry R71H/G230A/H232R/R293Q): as the sequence (Q86WV6 whole entry H232R, the tested form may be a part) above, with R71H, G230A, R293Q counted along it

C[C@H]1c2ccc(C(=O)NCc3c(F)cc(F)cc3F)cc2N(Cc2c(F)cc(OC[C@@H](O)CO)cc2F)C(=O)N1C [Example 147, (S)-1-(4-((S)-2,3-Dihydroxypropoxy)-2,6-difluorobenzyl)-3,4-dimethyl-2-oxo-N-(2,4,6-trifluorobenzyl)-1,2,3,4-tetrahydroquinazoline-7-carboxamide]
< 1000 nM: all assays above

C[C@H]1c2ccc(C(=O)NCc3c(F)cc(F)cc3F)cc2N(Cc2c(F)ccc(C(N)=O)c2F)C(=O)N1C [Example 141, (S)-1-(3-Carbamoyl-2,6-difluorobenzyl)-3,4-dimethyl-2-oxo-N-(2,4,6-trifluorobenzyl)-1,2,3,4-tetrahydroquinazoline-7-carboxamide]
< 1000 nM: all assays above

C[C@H]1c2ccc(C(=O)NCc3c(F)cc(F)cc3F)cc2N(Cc2c(Cl)ccc(F)c2F)C(=O)N1C [Example 177, (S)-1-(6-chloro-2,3-difluorobenzyl)-3,4-dimethyl-2-oxo-N-(2,4,6-trifluorobenzyl)-1,2,3,4-tetrahydroquinazoline-7-carboxamide]
< 1000 nM: all assays above

C[C@H]1c2ccc(C(=O)NCc3c(F)cc(F)cc3F)cc2N(Cc2c(F)cncc2Br)C(=O)N1C [Example 232, (S)-1-((3-bromo-5-fluoropyridin-4-yl)methyl)-3,4-dimethyl-2-oxo-N-(2,4,6-trifluorobenzyl)-1,2,3,4-tetrahydroquinazoline-7-carboxamide]
< 1000 nM: all assays above

— US11571423B2, “Small molecule modulators of human sting” (Curadev Pharma Limited, priority 2017, dated 2023)
